# Test results taken from patent publication US20230203058A1, “MACROCYCLIC DIAMINE DERIVATIVES AS ENT INHIBITORS FOR THE TREATMENT OF CANCERS, AND COMBINATION THEREOF WITH ADENOSINE RECEPTOR ANTAGONISTS” (ITEOS BELGIUM SA, priority 2020, published 2023).
# Molecular target: T1, human ENT1 (Homo sapiens, UniProt Q99808)
# T1 sequence (Q99808 1-456): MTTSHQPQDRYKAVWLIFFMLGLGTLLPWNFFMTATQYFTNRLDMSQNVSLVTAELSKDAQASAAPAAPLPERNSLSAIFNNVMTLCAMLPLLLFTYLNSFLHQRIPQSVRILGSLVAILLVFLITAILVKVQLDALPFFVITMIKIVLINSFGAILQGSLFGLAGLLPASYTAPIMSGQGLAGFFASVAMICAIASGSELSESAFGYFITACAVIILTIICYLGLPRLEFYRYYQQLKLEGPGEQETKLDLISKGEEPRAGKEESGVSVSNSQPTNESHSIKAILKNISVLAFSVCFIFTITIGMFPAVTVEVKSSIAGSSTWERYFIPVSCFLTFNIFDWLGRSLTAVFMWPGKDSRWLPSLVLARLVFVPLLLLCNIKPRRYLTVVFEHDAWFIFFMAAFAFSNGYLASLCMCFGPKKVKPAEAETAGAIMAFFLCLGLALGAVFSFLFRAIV
# Assay: ENT1 binding assay (competition with Sahenta-DY647 on JAR cells)
# Parameters: JAR cells expressing ENT1 were bought from ATCC® (HTB-144TM); host or cells: JAR cells (human choriocarcinoma line; whole cells)
# Settings: competition with Sahenta-DY647 100 nM, 4° C.
# Description: The present assay aims at showing that the compounds of the present invention can bind to human ENT1. The principle of the assay is a competition between the compounds of this invention and Sahenta-DY647, an ENT1 inhibitor that emits fluorescence (Ex = 630 nm, Em = 670 nm). By measuring the fluorescence at the end of the assay we could assess the binding potency of the compounds of the present invention.
# JAR cells expressing ENT1 were bought from ATCC® (HTB-144TM). Cells were cultured in RPMI 1640 medium (LONZA®, #BE12-702F/U1) supplemented with 10% FBS (GIBCO®, #10270-106), 10 mM Hepes (LONZA®, #BE17-737E), 1 mM Sodium Pyruvate (LONZA®, #BE13-115E) and 2% Penicillin/Streptomycin (LONZA®, #DE17-603E) at 37° C. and 5% CO2. The assay was conducted on the following buffer: HBSS (LONZA®, #LO-527F) supplemented with 10 mM Hepes (LONZA®, #BE17-737E) and 0.1% BSA (Miltenyi®, #130-091-376) on the day of the assay. JAR cells were resuspended in the described buffer. Compounds of the present invention and Sahenta-DY647 were diluted 200X in the described buffer.
# A total of 50000 cells were pre-incubated for 30 min at 4° C. with the compounds of the present invention before adding the corresponded IC90 of Sahenta-DY647 (100 nM) and incubate once more for 30 min at 4° C. The total volume of the reaction was 100 µL (50 µL of cells, 25 µL of the compounds of the present invention and 25 µL of Sahenta-DY647) in a 96 well plate, U-bottom (Greiner®, #650-180). The plates were washed 2X by centrifugation (4 min, 400 rcf at 4° C.) in the same buffer. Cells were resuspended in 70 µL of the buffer and 50 µL was transferred to a Black 384 Optiplate (PerkinElmer®, #6007279). Fluorescence (Ex = 630 nm, Em = 670 nm) was acquired on a Spectramax i3x (Molecular Devices®).
row,SMILES,IC50 [nM]
1,"COc1cc2cc(c1OC)OCCCC(OC(=O)CCC(=O)N1CCOCC1)CCN1CCCN(CCCOC2=O)CC1 (stereo not shown) [Compound 103, 74,75-dimethoxy-6-oxo-5,8-dioxa-1 (1,4)-diazepana-7(1,3)-benzenacyclotetradecaphane-12-yl 4-morpholino-4-oxobutanoate]",1 to 20
2,"O=C1NCCCN2CCCN(CC[C@@H](OC(=O)c3ccccc3)CCCOc3cccc1c3)CC2 (stereo in doubt) [Compound 19, (12S)-6-oxo-8-oxa-5-aza-1(1,4)-diazepana-7(1,3)-benzenacyclotetradecaphane-12-yl benzoate]",> 500
3,"COc1cc2cc(c1OC)OCCCC(OC(=O)c1c(F)ccc(C)c1Cl)CCN1CCCN(CCCOC2=O)CC1 (stereo not shown) [Compound 79, 74,75-dimethoxy-6-oxo-5,8-dioxa-1(1,4)-diazepana-7(1,3)-benzenacyclotetradecaphane-12-yl 2-chloro-6-fluoro-3-methylbenzoate]",1 to 20
4,"COc1cc2cc(c1OC)OCCCC(OC(=O)c1ccc(F)c(C#N)c1)CCN1CCCN(CCCOC2=O)CC1 (stereo not shown) [Compound 86, 74,75-dimethoxy-6-oxo-5,8-dioxa-1(1,4)-diazepana-7(1,3)-benzenacyclotetradecaphane-12-yl 3-cyano-4-fluorobenzoate]",1 to 20
5,"COc1cc(C(=O)O[C@H]2CCCOc3cc(cc(Cl)c3Cl)C(=O)OCCCN3CCCN(CC2)CC3)cc(OC)c1OC [Compound 22, (12S)-74,75-dichloro-6-oxo-5,8-dioxa-1(1,4)-diazepana-7(1,3)-benzenacyclotetradecaphane-12-yl 3,4,5-trimethoxybenzoate]",20 to 500
6,"COc1cc2cc(c1OC)OCCCC(OC(=O)c1ccc(O)nc1)CCN1CCCN(CCCOC2=O)CC1 (stereo not shown) [Compound 55, 74,75-dimethoxy-6-oxo-5,8-dioxa-1(1,4)-diazepana-7(1,3)-benzenacyclotetradecaphane-12-yl 6-hydroxynicotinate]",1 to 20
7,"COc1cc2cc(c1OC)OCCCC(OC(=O)c1ccc(C#N)c(F)c1)CCN1CCCN(CCCOC2=O)CC1 (stereo not shown) [Compound 82, 74,75-dimethoxy-6-oxo-5,8-dioxa-1(1,4)-diazepana-7(1,3)-benzenacyclotetradecaphane-12-yl 4-cyano-3-fluorobenzoate]",1 to 20
8,"COc1cc2cc(c1OC)OCCCC(OC(=O)c1cccc(OC(F)F)c1)CCN1CCCN(CCCOC2=O)CC1 (stereo not shown) [Compound 75, 74,75-dimethoxy-6-oxo-5,8-dioxa-1(1,4)-diazepana-7(1,3)-benzenacyclotetradecaphane-12-yl 3-(difluoromethoxy)benzoate]",20 to 500
9,"COc1cc2cc(c1OC)OCCCC(OC(=O)CC1COC1)CCN1CCCN(CCCOC2=O)CC1 (stereo not shown) [Compound 66, 74,75-dimethoxy-6-oxo-5,8-dioxa-1(1,4)-diazepana-7(1,3)-benzenacyclotetradecaphane-12-yl 2-(oxetan-3-yl)acetate]",1 to 20
10,"COc1cc2cc(c1OC)OCCC[C@@H](OC(=O)c1ccccc1)CCN1CCCN(CCCOC2=O)CC1 [Compound 31, (12R)-74,75-dimethoxy-6-oxo-5,8-dioxa-1(1,4)-diazepana-7(1,3)-benzenacyclotetradecaphane-12-yl benzoate]",1 to 20
11,"COc1cc2cc(c1OC)OCCCC(OC(=O)C1CCCC(OC)C1)CCN1CCCN(CCCOC2=O)CC1 (stereo not shown) [Compound 111, 74,75-dimethoxy-6-oxo-5,8-dioxa-1(1,4)-diazepana-7(1,3)-benzenacyclotetradecaphane-12-yl 3-methoxycyclohexane-1-carboxylate]",1 to 20
12,"COc1cc2cc(c1OC)OCCCC(OC(=O)C1CCC(OC)CC1)CCN1CCCN(CCCOC2=O)CC1 (stereo not shown) [Compound 70, 74,75-dimethoxy-6-oxo-5,8-dioxa-1(1,4)-diazepana-7(1,3)-benzenacyclotetradecaphane-12-yl 4-methoxycyclohexane-1-carboxylate]",1 to 20

# Now from value to compound:
row,IC50 [nM],SMILES
1,1 to 20,"COc1cc2cc(c1OC)OCCCC(OC(=O)c1ccc(F)c(Cl)c1)CCN1CCCN(CCCOC2=O)CC1 (stereo not shown) [Compound 27, 74,75-dimethoxy-6-oxo-5,8-dioxa-1(1,4)-diazepana-7(1,3)-benzenacyclotetradecaphane-12-yl 3-chloro-4-fluorobenzoate]"
2,1 to 20,"COc1cc2cc(c1OC)OCCCC(OC(=O)c1cc(Cl)c(Cl)cc1F)CCN1CCCN(CCCOC2=O)CC1 (stereo not shown) [Compound 91, 74,75-dimethoxy-6-oxo-5,8-dioxa-1(1,4)-diazepana-7(1,3)-benzenacyclotetradecaphane-12-yl 4,5-dichloro-2-fluorobenzoate]"
3,1 to 20,"COc1cc2cc(c1OC)OCCCC(OC(=O)C1CCC(F)(F)CC1)CCN1CCCN(CCCOC2=O)CC1 (stereo not shown) [Compound 105, 74,75-dimethoxy-6-oxo-5,8-dioxa-1(1,4)-diazepana-7(1,3)-benzenacyclotetradecaphane-12-yl 4,4-difluorocyclohexane-1-carboxylate]"
4,1 to 20,"COc1cc2cc(c1OC)OCCCC(OC(=O)c1ccc(F)c(C(F)(F)F)c1)CCN1CCCN(CCCOC2=O)CC1 (stereo not shown) [Compound 81, 74,75-dimethoxy-6-oxo-5,8-dioxa-1(1,4)-diazepana-7(1,3)-benzenacyclotetradecaphane-12-yl 4-fluoro-3-(trifluoromethyl)benzoate]"
5,1 to 20,"COc1cc2cc(c1OC)OCCCC(OC(=O)c1ccc(C#N)cc1)CCN1CCCN(CCCOC2=O)CC1 (stereo not shown) [Compound 87, 74,75-dimethoxy-6-oxo-5,8-dioxa-1(1,4)-diazepana-7(1,3)-benzenacyclotetradecaphane-12-yl 4-cyanobenzoate]"
6,1 to 20,"COc1cc2cc(c1OC)OCCC[C@@H](OC(=O)c1ccccc1)CCN(C)CCN(C)CCCOC2=O [Compound 35, (R)-15,16-dimethoxy-9,12-dimethyl-17-oxo-2,16-dioxa-9,12-diaza-1(1,3)-benzenacycloheptadecaphane-6-yl benzoate]"
7,> 500,"COc1cc2cc(c1OC)OCCCC(O)CCN1CCCN(CCCOC2=O)CC1 (stereo not shown) [Compound 38, 12-hydroxy-74,75-dimethoxy-5,8-dioxa-1(1,4)-diazepana-7(1,3)-benzenacyclotetradecaphan-6-one]"
8,1 to 20,"COc1cc2cc(c1OC)OCCCC(OC(=O)c1cccc(C#N)c1)CCN1CCCN(CCCOC2=O)CC1 (stereo not shown) [Compound 73, 74,75-dimethoxy-6-oxo-5,8-dioxa-1(1,4)-diazepana-7(1,3)-benzenacyclotetradecaphane-12-yl 3-cyanobenzoate]"
9,1 to 20,"COc1cc2cc(c1OC)OCCCC(OC(=O)c1ccc(F)cc1)CCN1CCCN(CCCOC2=O)CC1 (stereo not shown) [Compound 29, 74,75-dimethoxy-6-oxo-5,8-dioxa-1(1,4)-diazepana-7(1,3)-benzenacyclotetradecaphane-12-yl 4-fluorobenzoate]"
10,1 to 20,"COc1cc2cc(c1OC)OCCCC(OC(=O)C1CCC(C(F)(F)F)CC1)CCN1CCCN(CCCOC2=O)CC1 (stereo not shown) [Compound 106, 74,75-dimethoxy-6-oxo-5,8-dioxa-1(1,4)-diazepana-7(1,3)-benzenacyclotetradecaphane-12-yl 4-(trifluoromethyl)cyclohexane-1-carboxylate]"
11,1 to 20,"COc1cc2cc(c1OC)OCCCC(OC(=O)c1cc(F)cc(F)c1)CCN1CCCN(CCCOC2=O)CC1 (stereo not shown) [Compound 84, 74,75-dimethoxy-6-oxo-5,8-dioxa-1(1,4)-diazepana-7(1,3)-benzenacyclotetradecaphane-12-yl 3,5-difluorobenzoate]"
12,> 500,"COc1cc2cc(c1OC)OCCC[C@@H](O/N=C/c1ccccc1)CCN1CCCN(CCCNC2=O)CC1 [Compound 115, (E)-benzaldehyde O-((12R)-74,75-dimethoxy-6-oxo-8-oxa-5-aza-1(1,4)-diazepana-7(1,3)-benzenacyclotetradecaphane-12-yl) oxime]"
13,> 500,"COc1cc(C(=O)O[C@H]2CCCOc3cc(cc(OC)c3OC)C(=O)N(C)CCCN3CCCN(CC2)CC3)cc(OC)c1OC [Compound 12, (12S)-74,75-dimethoxy-5-methyl-6-oxo-8-oxa-5-aza-1(1,4)-diazepana-7(1,3)-benzenacyclotetradecaphane-12-yl 3,4,5-trimethoxybenzoate]"
